Article PMC2685978, “Evaluation of Wuchereria bancrofti GST as a Vaccine Candidate for Lymphatic Filariasis” (PLoS Neglected Tropical Diseases, 2009)

Biological target: T1, rWbGST (Wuchereria bancrofti, UniProt Q86LL8)
T1 construct: about 28 kDa with tag
T1 sequence (Q86LL8 1-208): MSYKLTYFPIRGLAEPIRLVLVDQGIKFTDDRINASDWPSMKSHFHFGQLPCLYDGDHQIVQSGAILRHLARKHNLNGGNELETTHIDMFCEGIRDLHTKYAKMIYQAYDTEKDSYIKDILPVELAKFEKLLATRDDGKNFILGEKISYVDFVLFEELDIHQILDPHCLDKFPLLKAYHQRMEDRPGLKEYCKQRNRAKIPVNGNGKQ
Assay: spectrophotometric conjugation assay at […] nm
Type: biochemical
Conditions: 1.0 mM CDNB, 1.0 mM GSH, 100 mM phosphate, pH 6.5; only specific activity printed

`O=[N+]([O-])c1ccc(Cl)c([N+](=O)[O-])c1` [CDNB, 1-chloro-2,4-dinitrobenzene] was tested, and the “spectrophotometric conjugation assay at 340 nm” value was “GST enzyme activity was determined using CDNB and GSH substrates”.
